# According to patent US20250179066A1, “ZWITTERIONIC ANTIBACTERIAL COMPOUNDS” (Hoffmann-La Roche Inc., priority 2022, published 2025):
# Where a name gives a salt, the structure may show the parent alone.
# System: Acinetobacter baumannii ATCC17961
# Test: Antimicrobial susceptibility testing: 90% growth inhibitory concentration (IC90) determination
# Assay type: cell-based
# Conditions: Acinetobacter baumannii, ATCC17961, 16 h, 90% growth inhibitory concentration against Acinetobacter baumannii ATCC17961, Iso-Sensitest broth, OD 600 nm over 16 h; read-out: ATCC 17961 IC90
# Protocol: The in vitro antimicrobial activity of the compounds was determined according to the following procedure: The assay used a 10-points Iso-Sensitest broth medium to measure quantitatively the in vitro activity of the compounds against Acinetobacter baumannii ATCC17961. Stock compounds in DMSO were serially twofold diluted (e.g. range from 10 to 0.0195 μM final concentration) in 384 wells microtiter plates and inoculated with 49 μL the bacterial suspension in Iso-Sensitest medium to have a final cell concentration of ˜5×10^(5) CFU/mL in a final volume/well of 50 μL/well. Microtiter plates were incubated at 35±2° C. Bacterial cell growth was determined with the measurement of optical density at λ=600 nm each min over a time course of 16 h. Growth inhibition was calculated during the logarithmic growth of the bacterial cells with determination of the concentration inhibiting 50% (IC50) and 90% (IC90) of the growth. Table 1 provides the 90% growth inhibitory concentrations (IC90) in micromoles per liter of the compounds of present invention obtained against the strain Acinetobacter baumannii ATCC17961.
row,Structure (SMILES),IC90 [nM]
1,"COc1ccc(-n2cc(-c3cnc(C(=O)Nc4ccc(C(=O)N5CCN(C(=O)C6CC[N+](CC(=O)O)(CC7CNC7)CC6)CC5)c(Cl)c4)n3C)c(C(F)(F)F)n2)nc1 (stereo not shown) [Example 22, 2-[1-(azetidin-3-ylmethyl)-4-[4-[2-chloro-4-[[5-[1-(5-methoxy-2-pyridyl)-3-(trifluoromethyl)pyrazol-4-yl]-1-methyl-imidazole-2-carbonyl]amino]benzoyl]piperazine-1-carbonyl]piperidin-1-ium-1-yl]acetic acid. 1:1 formate]",330
2,"Cn1c(-c2cn(-c3ccc(NCc4ccccn4)cn3)nc2C(F)(F)F)cnc1C(=O)Nc1ccc(C(=O)N2CCN(C(=O)C3CC[N+](CC(=O)O)(CC4CNC4)CC3)CC2)c(Cl)c1 (stereo not shown) [Example 23, 2-[1-(azetidin-3-ylmethyl)-4-[4-[2-chloro-4-[[1-methyl-5-[1-[5-(2-pyridylmethylamino)-2-pyridyl]-3-(trifluoromethyl)pyrazol-4-yl]imidazole-2-carbonyl]amino]benzoyl]piperazine-1-carbonyl]piperidin-1-ium-1-yl]acetic acid. 1:1 2,2,2-trifluoroacetate]",340
3,"Cn1c(-c2cn(-c3ccc(NCC4(N)CCCC4)cn3)nc2C(F)(F)F)cnc1C(=O)Nc1ccc(C(=O)N2CCN(C(=O)C3CC[N+](CC(=O)O)(CC4CNC4)CC3)CC2)c(Cl)c1 (stereo not shown) [Example 24, 2-[4-[4-[4-[[5-[1-[5-[(1-aminocyclopentyl)methylamino]-2-pyridyl]-3-(trifluoromethyl)pyrazol-4-yl]-1-methyl-imindazole-2-carbonyl]amino]-2-chloro-benzoyl]piperazine-1-carbonyl]-1-(azetidin-3-ylmethyl)piperidin-1-ium-1-yl]acetic acid. 1:1 2,2,2-trifluoroacetic acid. 1:1 2,2,2-trifluoroacetate]",350
4,"CNc1ccc(-n2cc(-c3cnc(C(=O)Nc4ccc(C(=O)N5CCN(C(=O)C6CC[N+](CC(=O)O)(CC7CNC7)CC6)CC5)c(Cl)c4)n3C)c(C(F)(F)F)n2)nc1 (stereo not shown) [Example 25, 2-[1-(azetidin-3-ylmethyl)-4-[4-[2-chloro-4-[[1-methyl-5-[1-[5-(methylamino)-2-pyridyl]-3-(trifluoromethyl)pyrazol-4-yl]imidazole-2-carbonyl]amino]benzoyl]piperazine-1-carbonyl]piperidin-1-ium-1-yl]acetic acid. 1:1 formate]",350
5,"Cn1c(-c2cn(-c3ccc(N4CCOCC4)cn3)nc2C(F)(F)F)cnc1C(=O)Nc1ccc(C(=O)N2CCN(C(=O)C3CC[N+](CC(=O)O)(CC4CNC4)CC3)CC2)c(Cl)c1 (stereo not shown) [Example 26, 2-[1-(azetidin-3-ylmethyl)-4-[4-[2-chloro-4-[[1-methyl-5-[1-(5-morpholino-2-pyridyl)-3-(trifluoromethyl)pyrazol-4-yl]imidazole-2-carbonyl]amino]benzoyl]piperazine-1-carbonyl]piperidin-1-ium-1-yl]acetic acid. 1:1 formate]",360
6,"Cn1c(-c2cn(-c3ccc4[nH]ccc4n3)nc2C(F)(F)F)cnc1C(=O)Nc1ccc(C(=O)N2CCN(C(=O)[C@H]3CC[N@+](CC(=O)O)(CC4CNC4)CC3)CC2)c(Cl)c1 [Example 27, cis-2-[1-(azetidin-3-ylmethyl)-4-[4-[2-chloro-4-[[1-methyl-5-[1-(1H-pyrrolo[3,2-b]pyridin-5-yl)-3-(trifluoromethyl)pyrazol-4-yl]imidazole-2-carbonyl]amino]benzoyl]piperazine-1-carbonyl]piperidin-1-ium-1-yl]acetic acid. 1:1 2,2,2-trifluoroacetate]",360
7,"Cn1c(-c2cn(-c3ccc(NC[C@@H]4CCCN4)cn3)nc2C(F)(F)F)cnc1C(=O)Nc1ccc(C(=O)N2CCN(C(=O)C3CC[N+](CC(=O)O)(CC4CNC4)CC3)CC2)c(Cl)c1 (stereo partly drawn) [Example 28, 2-[1-(azetidin-3-ylmethyl)-4-[4-[2-chloro-4-[[1-methyl-5-[1-[5-[[(2S)-pyrrolidin-2-yl]methylamino]-2-pyridyl]-3-(trifluoromethyl)pyrazol-4-yl]imidazole-2-carbonyl]amino]benzoyl]piperazine-1-carbonyl]piperidin-1-ium-1-yl]acetic acid. 1:1 2,2,2-trifluoroacetic acid. 1:1 2,2,2-trifluoroacetate]",360
8,"CNc1ccc(-n2cc(-c3cnc(C(=O)Nc4ccc(C(=O)N5CCN(C(=O)[C@H]6CC[N@+](CC(=O)O)(CC7CNC7)CC6)CC5)c(Cl)c4)n3C)c(C(F)(F)F)n2)nc1 [Example 29, cis-2-[1-(azetidin-3-ylmethyl)-4-[4-[2-chloro-4-[[1-methyl-5-[1-[5-(methylamino)-2-pyridyl]-3-(trifluoromethyl)pyrazol-4-yl]imidazole-2-carbonyl]amino]benzoyl]piperazine-1-carbonyl]piperidin-1-ium-1-yl]acetic acid. 1:1 2,2,2-trifluoroacetate]",360
9,"Cn1c(-c2cn(-c3ccc(N)cn3)nc2C(F)(F)F)cnc1C(=O)Nc1ccc(C(=O)N2CCN(C(=O)C3CC[N+](CCCN)(CC(=O)O)CC3)CC2)c(Cl)c1 (stereo not shown) [Example 30, 2-[1-(3-aminopropyl)-4-[4-[4-[[5-[1-(5-amino-2-pyridyl)-3-(trifluoromethyl)pyrazol-4-yl]-1-methyl-imidazole-2-carbonyl]amino]-2-chloro-benzoyl]piperazine-1-carbonyl]piperidin-1-ium-1-yl]acetic acid. 1:1 2,2,2-trifluoroacetate]",370

# Results, then the compound that gave them:
row,IC90 [nM],Structure (SMILES)
1,370,"COCCNc1ccc(-n2cc(-c3cnc(C(=O)Nc4ccc(C(=O)N5CCN(C(=O)[C@H]6CC[N@+](CC(=O)O)(CC7CNC7)CC6)CC5)c(Cl)c4)n3C)c(C(F)(F)F)n2)nc1 [Example 31, cis-2-[1-(Azetidin-3-ylmethyl)-4-[4-[2-chloro-4-[[5-[1-[5-(2-methoxyethylamino)-2-pyridyl]-3-(trifluoromethyl)pyrazol-4-yl]-1-methyl-imidazole-2-carbonyl]amino]benzoyl]piperazine-1-carbonyl]piperidin-1-ium-1-yl]acetic Acid;2,2,2-trifluoroacetate]"
2,370,"Cn1c(-c2cn(-c3ccc(N)cn3)nc2C(F)(F)F)cnc1C(=O)Nc1ccc(C(=O)N2CCN(C(=O)[C@H]3CC[N@@+](CCCN)(CC(=O)O)CC3)CC2)c(Cl)c1 [Example 32, cis-2-[1-(3-aminopropyl)-4-[4-[4-[[5-[1-(5-amino-2-pyridyl)-3-(trifluoromethyl)pyrazol-4-yl]-1-methyl-imidazole-2-carbonyl]amino]-2-chloro-benzoyl]piperazine-1-carbonyl]piperidin-1-ium-1-yl]acetic acid. 1:1 2,2,2-trifluoroacetate]"
3,380,"Cn1c(-c2cn(-c3ccc4[nH]c(CO)cc4n3)nc2C(F)(F)F)cnc1C(=O)Nc1ccc(C(=O)N2CCN(C(=O)[C@H]3CC[N@+](CC(=O)O)(CC4CNC4)CC3)CC2)c(Cl)c1 [Example 33, cis-2-[1-(azetidin-3-ylmethyl)-4-[4-[2-chloro-4-[[1-methyl-5-[1-(2-methylol-1H-pyrrolo[3,2-b]pyridin-5-yl)-3-(trifluoromethyl)pyrazol-4-yl]imidazole-2-carbonyl]amino]benzoyl]piperazine-1-carbonyl]piperidin-1-ium-1-yl]acetic acid. 1:1 2,2,2-trifluoroacetate]"
4,400,"Cn1c(-c2cn(-c3ccc(N)cn3)nc2C(F)(F)F)cnc1C(=O)Nc1ccc(C(=O)N2CCN(C(=O)[C@H]3CC[N@+](CC(=O)O)(CC4CNC4)CC3)CC2)c(Cl)c1 [Example 34, cis-2-[4-[4-[4-[[5-[1-(5-amino-2-pyridyl)-3-(trifluoromethyl)pyrazol-4-yl]-1-methyl-imidazole-2-carbonyl]amino]-2-chloro-benzoyl]piperazine-1-carbonyl]-1-(azetidin-3-ylmethyl)piperidin-1-ium-1-yl]acetic acid. 1:1 2,2,2-trifluoroacetic acid. 1:1 2,2,2-trifluoroacetate]"
5,400,"Cn1c(-c2cn(-c3ccc(N)cn3)nc2C(F)(F)F)cnc1C(=O)Nc1ccc(C(=O)N2CCN(C(=O)CCC[N+](CCCN)(CCCN)CC(=O)O)CC2)c(Cl)c1 [Example 35, bis(3-aminopropyl)-[4-[4-[4-[[5-[1-(5-amino-2-pyridyl)-3-(trifluoromethyl)pyrazol-4-yl]-1-methyl-imidazole-2-carbonyl]amino]-2-chloro-benzoyl]piperazino]-4-keto-butyl]-(carboxymethyl)ammonium. 1:1 2,2,2-trifluoroacetic acid. 1:1 2,2,2-trifluoroacetate]"
6,420,"Cn1c(-c2cn(-c3ccc(NCCN)cn3)nc2C(F)(F)F)cnc1C(=O)Nc1ccc(C(=O)N2CCN(C(=O)CCC[N+](CCCCN)(CCCCN)CC(=O)O)CC2)c(Cl)c1 [Example 36, bis(4-aminobutyl)-[4-[4-[4-[[5-[1-[5-(2-aminoethylamino)-2-pyridyl]-3-(trifluoromethyl)pyrazol-4-yl]-1-methyl-imidazole-2-carbonyl]amino]-2-chloro-benzoyl]piperazino]-4-keto-butyl]-(carboxymethyl)ammonium. 1:2 2,2,2-trifluoroacetic acid. 1:1 2,2,2-trifluoroacetate]"
7,420,"COc1ccc(-n2cc(-c3cnc(C(=O)Nc4ccc(C(=O)N5CCN(C(=O)C6CC[N+](CC(=O)O)(CC7CNC7)CC6)CC5)c(Cl)c4)n3C)c(C(F)(F)F)n2)cc1 (stereo not shown) [Example 37, 2-[1-(azetidin-3-ylmethyl)-4-[4-[2-chloro-4-[[5-[1-(4-methoxyphenyl)-3-(trifluoromethyl)pyrazol-4-yl]-1-methyl-imidazole-2-carbonyl]amino]benzoyl]piperazine-1-carbonyl]piperidin-1-ium-1-yl]acetic acid. 1:1 formate]"
